The first series deals with Bean Aphid (Aphis fabae). The series is described as follows: Bean aphid mortality test, nasturtium plants dipped in test solution. The format is in vivo. The note with it: 300 ppm, after 3 days. From the text: I.4 Bean Aphid (Aphis fabae)
Nasturtium plants grown in Metro mix in the 1st leaf-pair stage (variety ‘Mixed Jewel’) were infested with approximately 2-30 laboratory-reared aphids by placing infested cut plants on top of the test plants. The cut plants were removed after 24 hr. Each plant was dipped into the test solution to provide complete coverage of the foliage, stem, protruding seed surface and surrounding cube surface and allowed to dry in the fume hood. The treated plants were kept at about 25° C. with continuous fluorescent light. Aphid mortality is determined after 3 days.
Turning to `CC(=Cc1cccc(F)c1)CNN(C)C(=O)c1ccccc1` [A93], the “mortality in comparison with untreated controls” value (“mortality in comparison” below) worked out at 75%.

Consider `CC(=Cc1ccccc1)CNNC(=O)c1ccc(F)cc1F` [A141], for which the “mortality in comparison” value worked out at 75%.

In the case of `CC(=Cc1ccccc1F)CNNC(=O)c1ccc(F)cc1F` [A305], the “mortality in comparison” value is on record as 75%.

Turning to `O=C(NNCC=Cc1ccc(Cl)s1)c1ccccn1` [E1], the “mortality in comparison” value is recorded as 75%.

Turning to `CC(C)C(=Cc1ccco1)CNNC(=O)c1ccccn1` [E3], the “mortality in comparison” value is on record as 75%.

A further series relates to Orchid thrips (dichromothrips corbetti). The series is described as follows: Orchid thrips mortality test, floral-immersion technique. The series is classed as in vivo. The note with it: 96 h, orchid petals dipped, adult thrips, after 4 days, read-out: mortality in comparison with untreated controls. The protocol:
I.3 Orchid thrips (dichromothrips corbetti)
Dichromothrips corbetti adults used for bioassay were obtained from a colony maintained continuously under laboratory conditions. For testing purposes, the test compound was diluted to a concentration of 500 ppm (wt compound: vol diluent) in a 1:1 mixture of acetone:water, plus 0.01% Kinetic® surfactant.
Thrips potency of each compound was evaluated by using a floral-immersion technique. Plastic petri dishes were used as test arenas. All petals of individual, intact orchid flowers were dipped into treatment solution for approximately 3 seconds and allowed to dry for 2 hours. Treated flowers were placed into individual petri dishes along with 10-15 adult thrips. The petri dishes were then covered with lids. All test arenas were held under continuous light and a temperature of about 28° C. for duration of the assay. After 4 days, the numbers of live thrips were counted on each flower, and along inner walls of each petri dish. The level of thrips mortality was extrapolated from pre-treatment thrips numbers.
What is called mortality is the percentage killed. Turning to `CC(=Cc1cccc(F)c1)CNNC(=O)c1ccccc1F` [A1, 2-Fluorobenzoic acid N′-[3-(3-fluorophenyl)-2-methyl-allyl]hydrazide], the mortality at 300 ppm was > 75%.

The values are drawn from patent US20070265231A1, “Hydrazide Compounds for Combating Animal Pests” (priority 2005, published 2007).
